Calls of active or inactive are those of the source. No rule for the calls is given here.
Tested on: CCRIS mutagenicity, Ames/micronucleus/aberration tests
Assay: CCRIS mutagenicity studies
[1] = Test System: AMES SALMONELLA TYPHIMURIUM, Strain/Indicator: TA100, Metabolic Activation: NONE, Method: STANDARD PLATE
[2] = Test System: AMES SALMONELLA TYPHIMURIUM, Strain/Indicator: TA100, Metabolic Activation: RAT, LIVER, S-9, AROCLOR 1254, Method: STANDARD PLATE
[3] = Test System: AMES SALMONELLA TYPHIMURIUM, Strain/Indicator: TA98, Metabolic Activation: NONE, Method: STANDARD PLATE
[4] = Test System: AMES SALMONELLA TYPHIMURIUM, Strain/Indicator: TA98, Metabolic Activation: RAT, LIVER, S-9, AROCLOR 1254, Method: STANDARD PLATE
[5] = Test System: AMES SALMONELLA TYPHIMURIUM, Strain/Indicator: TA102, Metabolic Activation: NONE, Method: STANDARD PLATE

Compound: COc1cc2c(c3oc(=O)c4c(c13)[C@@H](O)CC4=O)[C@@H]1C=CO[C@@H]1O2
- mutagenic call (Test System: AMES SALMONELLA TYPHIMURIUM, Strain/Indicator: TA98, Metabolic Activation: HUMAN, LIVER, S-9, Method: STANDARD PLATE): inactive; negative
- mutagenic call (Test System: AMES SALMONELLA TYPHIMURIUM, Strain/Indicator: TA100, Metabolic Activation: HUMAN, LIVER, S-9, Method: STANDARD PLATE): inactive; negative
- mutagenic call [1]: active; positive
- mutagenic call [2]: active; positive

Compound: c1ccc([C@@H]2CO2)cc1
- mutagenic call (Test System: AMES SALMONELLA TYPHIMURIUM, Strain/Indicator: TA100, Metabolic Activation: NONE): active; positive
- mutagenic call [1]: active; positive

Compound: N=c1c2ncn(C(c3ccccc3)(c3ccccc3)c3ccccc3)c2ncn1O
- mutagenic call (Test System: AMES SALMONELLA TYPHIMURIUM, Strain/Indicator: TA97, Metabolic Activation: NONE, Method: STANDARD PLATE): inactive; negative
- mutagenic call (Test System: AMES SALMONELLA TYPHIMURIUM, Strain/Indicator: TA97, Metabolic Activation: RAT, LIVER, S-9, AROCLOR 1254, Method: STANDARD PLATE): inactive; negative
- mutagenic call [3]: inactive; negative
- mutagenic call [4]: active; positive
- mutagenic call [1]: inactive; negative
- mutagenic call [2]: inactive; negative

Compound: CC(C)(c1ccc(O)cc1)c1ccc(O)cc1
- mutagenic call (End Point: IN VITRO CHROMOSOMAL ABERRATIONS, Test System: CHO CELLS, Metabolic Activation: RAT, LIVER, S-9, AROCLOR 1254): inactive; negative; previous trial yielded positive result at 50 ug/ml but no dose-respons
- mutagenic call (End Point: In vitro micronucleus, Test System: Human lymphoblastoid AHH-1 cells, Metabolic Activation: None): active; positive (all doses >10.8 ug/ml)
- mutagenic call (End Point: In vivo micronucleus, Test System: Bone marrow polychromatic erythrocytes, Species: Mouse, Strain/Sex: Swiss/Male, female, Route: Oral): inactive; negative
- mutagenic call (Test System: AMES SALMONELLA TYPHIMURIUM, Strain/Indicator: TA97A, Metabolic Activation: NONE, Method: STANDARD PLATE): inactive; negative
- mutagenic call (Test System: AMES SALMONELLA TYPHIMURIUM, Strain/Indicator: TA97A, Metabolic Activation: RAT LIVER S-9, PHENOBARBITAL AND BETA-NAPHTHAFLAVONE, Method: STANDARD PLATE): inactive; negative
- mutagenic call (Test System: AMES SALMONELLA TYPHIMURIUM, Strain/Indicator: TA98, Metabolic Activation: NONE, Method: PREINCUBATION): inactive; negative
- mutagenic call [3]: inactive; negative
- mutagenic call (Test System: AMES SALMONELLA TYPHIMURIUM, Strain/Indicator: TA98, Metabolic Activation: RAT LIVER S-9, AROCLOR 1254, Method: STANDARD PLATE): inactive; negative
- mutagenic call (Test System: AMES SALMONELLA TYPHIMURIUM, Strain/Indicator: TA98, Metabolic Activation: RAT LIVER S-9, PHENOBARBITAL AND BETA-NAPHTHAFLAVONE, Method: STANDARD PLATE): inactive; negative
- mutagenic call (Test System: AMES SALMONELLA TYPHIMURIUM, Strain/Indicator: TA98, Metabolic Activation: RAT LIVER S-9, PHENOBARBITAL AND BETA-NAPHTHOFLAVONE, Method: PREINCUBATION): inactive; negative
- mutagenic call (Test System: AMES SALMONELLA TYPHIMURIUM, Strain/Indicator: TA98, Metabolic Activation: S-9, Method: PREINCUBATION): inactive; negative
- mutagenic call (Test System: AMES SALMONELLA TYPHIMURIUM, Strain/Indicator: TA100, Metabolic Activation: NONE, Method: PREINCUBATION): inactive; negative
- mutagenic call [1]: inactive; negative
- mutagenic call (Test System: AMES SALMONELLA TYPHIMURIUM, Strain/Indicator: TA100, Metabolic Activation: RAT LIVER S-9, AROCLOR 1254, Method: STANDARD PLATE): inactive; negative
- mutagenic call (Test System: AMES SALMONELLA TYPHIMURIUM, Strain/Indicator: TA100, Metabolic Activation: RAT LIVER S-9, PHENOBARBITAL AND BETA-NAPHTHAFLAVONE, Method: STANDARD PLATE): inactive; negative
- mutagenic call (Test System: AMES SALMONELLA TYPHIMURIUM, Strain/Indicator: TA100, Metabolic Activation: RAT LIVER S-9, PHENOBARBITAL AND BETA-NAPHTHOFLAVONE, Method: PREINCUBATION): inactive; negative
- mutagenic call (Test System: AMES SALMONELLA TYPHIMURIUM, Strain/Indicator: TA100, Metabolic Activation: S-9, Method: PREINCUBATION): inactive; negative
- mutagenic call [5]: inactive; negative
- mutagenic call (Test System: AMES SALMONELLA TYPHIMURIUM, Strain/Indicator: TA102, Metabolic Activation: RAT LIVER S-9, PHENOBARBITAL AND BETA-NAPHTHAFLAVONE, Method: STANDARD PLATE): inactive; negative
- mutagenic call (Test System: AMES SALMONELLA TYPHIMURIUM, Strain/Indicator: TA1535, Metabolic Activation: NONE, Method: PREINCUBATION): inactive; negative
- mutagenic call (Test System: AMES SALMONELLA TYPHIMURIUM, Strain/Indicator: TA1535, Metabolic Activation: RAT LIVER S-9, PHENOBARBITAL AND BETA-NAPHTHOFLAVONE, Method: PREINCUBATION): inactive; negative
- mutagenic call (Test System: AMES SALMONELLA TYPHIMURIUM, Strain/Indicator: TA1537, Metabolic Activation: NONE, Method: PREINCUBATION): inactive; negative
- mutagenic call (Test System: AMES SALMONELLA TYPHIMURIUM, Strain/Indicator: TA1537, Metabolic Activation: RAT LIVER S-9, PHENOBARBITAL AND BETA-NAPHTHOFLAVONE, Method: PREINCUBATION): inactive; negative
- mutagenic call (Test System: CHINESE HAMSTER V-79, Strain/Indicator: V-79 (HPRT)/6-THIOGUANINE, Metabolic Activation: NONE): inactive; negative
- mutagenic call (Test System: E.COLI, Strain/Indicator: WP2UVRA, Metabolic Activation: NONE, Method: PREINCUBATION): inactive; negative
- mutagenic call (Test System: E.COLI, Strain/Indicator: WP2UVRA, Metabolic Activation: RAT LIVER S-9, PHENOBARBITAL AND BETA-NAPHTHOFLAVONE, Method: PREINCUBATION): inactive; negative

Compound: CCCCN(N)CCCC
- mutagenic call (Test System: AMES SALMONELLA TYPHIMURIUM, Strain/Indicator: TA100, Metabolic Activation: NONE, Method: PREINCUBATION (11 HR GROWTH PERIOD FOR BACTERIA)): active; positive
- mutagenic call [1]: inactive; negative
- mutagenic call [2]: inactive; negative
- mutagenic call (Test System: AMES SALMONELLA TYPHIMURIUM, Strain/Indicator: TA100, Metabolic Activation: RAT, LIVER, S-9, PCB, Method: PREINCUBATION (11 HR GROWTH PERIOD FOR BACTERIA)): inactive; negative
- mutagenic call (Test System: AMES SALMONELLA TYPHIMURIUM, Strain/Indicator: TA102, Metabolic Activation: NONE, Method: PREINCUBATION (5 HR GROWTH PERIOD FOR BACTERIA)): active; positive
- mutagenic call (Test System: AMES SALMONELLA TYPHIMURIUM, Strain/Indicator: TA102, Metabolic Activation: NONE, Method: PREINCUBATION (7 HR GROWTH PERIOD FOR BACTERIA)): inactive; negative
- mutagenic call [5]: inactive; negative
- mutagenic call (Test System: AMES SALMONELLA TYPHIMURIUM, Strain/Indicator: TA102, Metabolic Activation: RAT, LIVER, S-9, AROCLOR 1254, Method: STANDARD PLATE): inactive; negative
- mutagenic call (Test System: AMES SALMONELLA TYPHIMURIUM, Strain/Indicator: TA102, Metabolic Activation: RAT, LIVER, S-9, PCB, Method: PREINCUBATION (5 OR 7 HR GROWTH PERIOD FOR BACTERIA)): inactive; negative

Compound: Cc1nc2c3c(ccc4ccc(O)cc43)ccc2n1C
- mutagenic call [4]: active; positive

Compound: CCCCC(CC)COC(=O)c1ccc(C(=O)O)cc1 (stereo not drawn)
- mutagenic call [3]: inactive; negative
- mutagenic call [4]: inactive; negative
- mutagenic call [1]: inactive; negative
- mutagenic call [2]: inactive; negative
- mutagenic call (Test System: AMES SALMONELLA TYPHIMURIUM, Strain/Indicator: TA1535, Metabolic Activation: NONE, Method: STANDARD PLATE): inactive; negative
- mutagenic call (Test System: AMES SALMONELLA TYPHIMURIUM, Strain/Indicator: TA1535, Metabolic Activation: RAT, LIVER, S-9, AROCLOR 1254, Method: STANDARD PLATE): inactive; negative
- mutagenic call (Test System: AMES SALMONELLA TYPHIMURIUM, Strain/Indicator: TA1537, Metabolic Activation: NONE, Method: STANDARD PLATE): inactive; negative
- mutagenic call (Test System: AMES SALMONELLA TYPHIMURIUM, Strain/Indicator: TA1537, Metabolic Activation: RAT, LIVER, S-9, AROCLOR 1254, Method: STANDARD PLATE): inactive; negative
- mutagenic call (Test System: AMES SALMONELLA TYPHIMURIUM, Strain/Indicator: TA1538, Metabolic Activation: NONE, Method: STANDARD PLATE): inactive; negative
- mutagenic call (Test System: AMES SALMONELLA TYPHIMURIUM, Strain/Indicator: TA1538, Metabolic Activation: RAT, LIVER, S-9, AROCLOR 1254, Method: STANDARD PLATE): inactive; negative
